Here are results for 2 compounds from patent US12098136B2, “Crystalline forms of lenalidomide” (BIOCON LIMITED, priority 2017, dated 2024).

The structures appear in SMILES notation.

Data set [1] can be described thus: Hygroscopicity / weight change. The data set is classed as physicochemical.
Another data set in a line: Thermal stability (neat). The class given is physicochemical.
A further data set relates to Mouse. As to conditions: in vivo; cited from earlier work.

For the compound `Nc1cccc2c1CN(C1CCC(=O)NC1=O)C2=O` (stereo not shown) [Lenalidomide-Resorcinol co-crystal], the weight change entry in data set [1] is reported as “does not exhibit significant weight change”. Moreover, the Hygroscopicity result in data set [1] (compared with Lenalidomide hemihydrate) is “lesser or comparable”. The “thermally stable up to (temperature)” value in the data set “Thermal stability (neat)” was no less than 80 °C.
Regarding `O=C1NS(=O)(=O)c2ccccc21` [Saccharin], in the data set on Mouse, the “Acute oral toxicity (LD50)” value is recorded as 17000 mg/kg.
